Measured values reported in patent publication US10669242B2 (priority 2016, dated 2020).
pIC50: −log10 of the molar value.

Assays:
[1] = molecular target: T1, C. difficile full-length toxin TcdA (Clostridioides difficile, UniProt P16154); experiment: cell-based
T1 construct: C. difficile full-length toxins (TcdA or TcdB); purchased Enzo Life Sciences BML-G140-0050

[2] = tested on: C. difficile toxin (TcdA and TcdB, ~1:1); experiment: Murine C. difficile toxin model (intrarectal toxin); format: in vivo, C57BL/6 mice; conditions: murine C. difficile toxin model, PO, 50 mg/kg body weight
Experimental: In the following studies, we established a murine C. difficile toxin model with modifications from a published murine model (Hirota, Iablokov et al. 2012). Details of the murine C. difficile toxin model are described in the “Experimental Protocols” (below). C. difficile toxins were isolated from a culture of the C. difficile strain VPI 10463. C. difficile toxins consisted of TcdA and TcdB (˜1:1 ratio of TcdA:TcdB). Respective TcdA and TcdB concentrations were determined by enzyme-linked immunosorbant assay (ELISA). In our mouse model, C. difficile toxins were administered intrarectally to evaluate their pathological effects.
We administered C. difficile toxin (12.5 μg/mouse) via intrarectal instillation into female C57BL/6 mice. Four (4) animals were used in each group. Four (4) hours after the toxin administration, the mice were euthanized. The colons were excised from the animals and washed with phosphate buffered saline (PBS). The colon lengths were measured. Excised colon tissues were stored at −70° C. for chemical analysis of interleukin-1β(IL-1β) and myeloperosidase (MPO) in tissues, which are the hallmarks of colon inflammation. Excised colon tissues were also stored at room temperature in 10% neutral buffered formalin for histopathological analysis.
Using the murine C. difficile toxin model (Example 61), we evaluated the efficacy of Example 6a in reducing the C. difficile toxin activity. In this study, the isolated toxin (12.5 μg) was diluted in 50 μl of PBS and mixed with a 50 μl suspension of Example 6a (10 mg/mL) in 1% carboxymethyl cellulose and 0.5% Tween 80 to achieve a fixed dose of […] of Example 6a (0.5 mg in mice weighing ˜20 g) and C. difficile toxin (12.5 μg). Three (3) animals were used in each group.
In this study, we evaluated the efficacy of Example 6a via different routes of administration (i.e., oral (PO) and intraperitoneal (IP) administrations) in the same murine C. difficile toxin model (Example 61). In both PO and IP dosages, Example 6a was prepared as 5 mg/mL solutions in 20% PEG-400, 0.4% carboxymethyl cellulose and 0.2% Tween 80. Example 6a was administered at a final dose of 50 mg/kg body weight. Three (3) mice were used in each group (i.e., vehicle (control), PO and IP).
Using the murine C. difficile toxin model (Example 63), we further tested the efficacy of four (4) additional compounds (i.e., Example 6a, Example 5ae, Example 4cl, and Example 5al) via PO administration. All of the compounds were dosed orally at 50 mg/kg body weight. In three separate studies a total of three (3) to fourteen (14) mice were used in each group.
We evaluated the efficacy of additional compounds in reducing C. difficile toxicity. Using the PO administration (Example 63), we further tested 30 compounds (Table 34). All of the compounds were dosed orally at 50 mg/kg body weight. Three (3) to fourteen (14) animals were used for each compound. % inhibition was determined by the following formula: […]
An overnight culture of C. difficile strain VPI 10463 (American Type Culture Collection) was grown at 37° C. in Brain-Heart Infusion (BHI) broth using the GasPak EZ Anaerobe Pouch System (Becton Dickinson). 2 mL of the culture was added to 28 mL of phosphate buffered saline (PBS) in a gamma-irradiated, 10,000 molecular weight cut-off, 30-70 ml Slide-A-Lyzer G2 dialysis cassette (Pierce). This cassette was submerged in 1 L of BHI broth in a 2 L beaker and incubated under anaerobic conditions for 5 days at 37° C. The culture was then transferred to a 50 mL conical tube and the cassette was washed with 10 mL of PBS. The combined culture and wash were centrifuged at 2,000 g for 20 minutes to pellet the bacteria and the supernatant was filtered through a 0.2 μm syringe filter. The filtrate was then applied to a 20 mL 150 K molecular weight cut-off concentration column (Pierce) and centrifuged at 2,000 g for 15 minutes. Concentrated supernatant was stored at 4° C. […]

[3] = molecular target: T2, recombinant glucosyltransferase domain of C. difficile Toxin B/TcdB (Clostridioides difficile, UniProt P18177); experiment: biochemical
T2 construct: 6-His (C); purchased R&D Systems 6246-GT

[4] = molecular target: T3, C. difficile full-length toxin TcdB (Clostridioides difficile, UniProt P18177); experiment: cell-based
T3 construct: C. difficile full-length toxins (TcdA or TcdB); purchased EMD Millipore 616377
T3 sequence (P18177 2-2366 limits assumed): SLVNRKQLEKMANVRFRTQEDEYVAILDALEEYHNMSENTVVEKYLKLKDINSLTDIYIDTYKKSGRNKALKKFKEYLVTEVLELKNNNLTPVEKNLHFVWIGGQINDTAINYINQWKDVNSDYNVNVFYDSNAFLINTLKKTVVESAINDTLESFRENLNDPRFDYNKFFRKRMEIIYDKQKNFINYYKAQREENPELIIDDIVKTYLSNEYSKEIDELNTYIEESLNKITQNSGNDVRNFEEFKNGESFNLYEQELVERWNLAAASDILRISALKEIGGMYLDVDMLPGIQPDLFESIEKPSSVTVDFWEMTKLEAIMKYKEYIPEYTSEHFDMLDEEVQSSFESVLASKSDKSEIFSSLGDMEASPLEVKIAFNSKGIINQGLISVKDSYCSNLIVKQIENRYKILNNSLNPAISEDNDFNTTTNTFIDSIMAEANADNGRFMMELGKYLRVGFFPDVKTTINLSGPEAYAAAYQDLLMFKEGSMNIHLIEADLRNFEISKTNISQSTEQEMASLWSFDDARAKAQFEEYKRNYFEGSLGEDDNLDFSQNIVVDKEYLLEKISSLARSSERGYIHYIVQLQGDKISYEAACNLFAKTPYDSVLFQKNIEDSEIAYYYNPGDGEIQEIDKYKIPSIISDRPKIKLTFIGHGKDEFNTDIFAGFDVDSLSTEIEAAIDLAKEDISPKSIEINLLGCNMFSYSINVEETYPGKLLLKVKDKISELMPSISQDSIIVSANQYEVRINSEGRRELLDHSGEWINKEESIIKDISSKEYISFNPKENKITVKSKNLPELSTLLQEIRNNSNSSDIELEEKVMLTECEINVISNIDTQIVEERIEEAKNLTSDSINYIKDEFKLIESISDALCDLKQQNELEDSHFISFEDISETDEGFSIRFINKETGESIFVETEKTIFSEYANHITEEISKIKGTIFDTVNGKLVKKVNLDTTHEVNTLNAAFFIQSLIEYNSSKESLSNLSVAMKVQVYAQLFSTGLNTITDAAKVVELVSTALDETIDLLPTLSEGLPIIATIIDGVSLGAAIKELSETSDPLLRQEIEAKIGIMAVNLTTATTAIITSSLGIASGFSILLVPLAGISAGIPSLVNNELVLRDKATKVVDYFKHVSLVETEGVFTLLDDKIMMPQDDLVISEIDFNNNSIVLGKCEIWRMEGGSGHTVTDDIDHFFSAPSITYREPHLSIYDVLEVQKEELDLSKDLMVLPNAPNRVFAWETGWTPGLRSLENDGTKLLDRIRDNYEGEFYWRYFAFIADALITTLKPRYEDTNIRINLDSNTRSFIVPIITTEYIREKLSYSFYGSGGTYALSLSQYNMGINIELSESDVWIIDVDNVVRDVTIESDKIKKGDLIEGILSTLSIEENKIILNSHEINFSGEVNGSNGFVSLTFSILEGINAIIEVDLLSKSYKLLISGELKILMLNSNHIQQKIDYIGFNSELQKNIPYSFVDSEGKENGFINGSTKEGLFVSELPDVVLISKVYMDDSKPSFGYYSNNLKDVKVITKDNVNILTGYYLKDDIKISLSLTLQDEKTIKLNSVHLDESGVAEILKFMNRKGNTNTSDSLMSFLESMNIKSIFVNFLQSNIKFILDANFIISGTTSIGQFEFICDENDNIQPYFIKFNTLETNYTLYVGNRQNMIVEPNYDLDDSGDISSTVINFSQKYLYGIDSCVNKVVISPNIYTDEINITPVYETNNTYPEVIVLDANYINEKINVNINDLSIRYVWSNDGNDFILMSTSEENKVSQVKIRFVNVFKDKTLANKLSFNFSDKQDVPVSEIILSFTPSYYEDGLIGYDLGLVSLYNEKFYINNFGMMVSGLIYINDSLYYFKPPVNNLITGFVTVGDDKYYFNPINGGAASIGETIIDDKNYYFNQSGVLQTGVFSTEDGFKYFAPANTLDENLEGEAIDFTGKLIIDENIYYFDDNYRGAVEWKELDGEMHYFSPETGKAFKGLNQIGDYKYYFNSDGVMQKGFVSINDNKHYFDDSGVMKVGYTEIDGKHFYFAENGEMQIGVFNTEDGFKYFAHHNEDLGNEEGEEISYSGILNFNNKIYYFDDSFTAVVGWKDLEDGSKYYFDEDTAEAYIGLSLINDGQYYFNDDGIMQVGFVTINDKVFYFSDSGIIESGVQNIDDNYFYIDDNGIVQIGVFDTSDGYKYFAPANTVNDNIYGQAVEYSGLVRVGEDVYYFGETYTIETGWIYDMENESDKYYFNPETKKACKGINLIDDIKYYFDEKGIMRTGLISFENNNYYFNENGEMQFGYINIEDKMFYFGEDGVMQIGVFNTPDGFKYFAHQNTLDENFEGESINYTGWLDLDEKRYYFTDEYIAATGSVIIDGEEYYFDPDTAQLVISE

T2 sequence (P18177 1-543): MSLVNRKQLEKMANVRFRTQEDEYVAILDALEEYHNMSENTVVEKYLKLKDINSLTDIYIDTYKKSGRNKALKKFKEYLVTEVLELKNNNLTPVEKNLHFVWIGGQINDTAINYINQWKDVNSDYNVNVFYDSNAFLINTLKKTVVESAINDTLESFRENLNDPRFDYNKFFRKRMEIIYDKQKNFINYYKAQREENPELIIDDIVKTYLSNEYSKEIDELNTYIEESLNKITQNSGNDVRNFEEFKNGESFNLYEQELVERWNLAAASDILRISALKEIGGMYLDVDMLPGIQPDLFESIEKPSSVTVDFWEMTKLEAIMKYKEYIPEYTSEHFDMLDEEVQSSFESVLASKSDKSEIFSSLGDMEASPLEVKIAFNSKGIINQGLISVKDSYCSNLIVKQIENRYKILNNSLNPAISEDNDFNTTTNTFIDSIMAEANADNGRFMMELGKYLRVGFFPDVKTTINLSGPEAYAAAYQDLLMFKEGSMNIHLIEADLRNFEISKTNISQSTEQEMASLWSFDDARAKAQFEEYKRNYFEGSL

SMILES | pIC50 [1] | IL-1β (% Inhibition) [2] | MPO (% Inhibition) [2] | pIC50 [3] | pIC50 [4]
O=C(Nc1ccc(F)cn1)c1ccc(CN2C(=O)c3ccc(Cl)cc3NC(=O)[C@H]2Cc2ccccn2)cc1 [Example 4a, (R)-4-((8-Chloro-2,5-dioxo-3-(pyridin-2-ylmethyl)-2,3-dihydro-1H-benzo[e][1,4]diazepin-4(5H)-yl)methyl)-N-(5-fluoropyridin-2-yl)benzamide] | 5.00 to 6.00 | 30% | 51% | > 7.00 | > 7.00
Cc1cnc2c(c1)CCN2C(=O)c1ccc(CN2C(=O)c3ccc(Cl)cc3NC(=O)[C@H]2Cc2ccccn2)cc1Cl [Example 4ad, (R)-8-Chloro-4-(3-chloro-4-(5-methyl-2,3-dihydro-1H-pyrrolo[2,3-b]pyridine-1-carbonyl)benzyl)-3-(pyridin-2-ylmethyl)-3,4-dihydro-1H-benzo[e][1,4]diazepine-2,5-dione] | 6.00 to 7.00 | 80% | 100% | > 7.00 | > 7.00
COc1cc(CN2C(=O)c3ccc(Cl)cc3NC(=O)[C@H]2Cc2ccccn2)ccc1C(=O)Nc1ccc(C(F)(F)F)cn1 [Example 4au, (R)-4-((8-Chloro-2,5-dioxo-3-(pyridin-2-ylmethyl)-2,3-dihydro-1H-benzo[e][1,4]diazepin-4(5H)-yl)methyl)-2-methoxy-N-(5-(trifluoromethyl)pyridin-2-yl)benzamide] | < 5.00 | 40% | 0% | > 7.00 | 6.00 to 7.00
COc1ccc(NC(=O)c2ccc(CN3C(=O)c4ccc(Cl)cc4NC(=O)[C@H]3Cc3ccccn3)cc2Cl)nc1 [Example 4by, (R)-2-Chloro-4-((8-chloro-2,5-dioxo-3-(pyridin-2-ylmethyl)-2,3-dihydro-1H-benzo[e][1,4]diazepin-4(5H)-yl)methyl)-N-(5-methoxypyridin-2-yl)benzamide] | 6.00 to 7.00 | 46% | 1% | > 7.00 | > 7.00
Cc1ccc(NC(=O)c2ccc(CN3C(=O)c4ccc(Cl)cc4NC(=O)[C@H]3Cc3ccccn3)cc2Cl)nc1 [Example 4cb, (R)-2-Chloro-4-((8-chloro-2,5-dioxo-3-(pyridin-2-ylmethyl)-2,3-dihydro-1H-benzo[e][1,4]diazepin-4(5H)-yl)methyl)-N-(5-methylpyridin-2-yl)benzamide] | 6.00 to 7.00 | 74% | 99% | > 7.00 | > 7.00
COc1cnc(NC(=O)c2ccc(CN3C(=O)c4ccc(Cl)cc4NC(=O)[C@H]3Cc3ccccn3)cc2Cl)cn1 [Example 4ci, (R)-2-Chloro-4-((8-chloro-2,5-dioxo-3-(pyridin-2-ylmethyl)-2,3-dihydro-1H-benzo[e][1,4]diazepin-4(5H)-yl)methyl)-N-(5-methoxypyrazin-2-yl)benzamide] | 5.00 to 6.00 | 86% | 19% | > 7.00 | 6.00 to 7.00
Cc1ccc(NC(=O)c2ccc(CN3C(=O)c4ccc(Cl)cc4NC(=O)[C@H]3Cc3ccccn3)cc2C)nc1 [Example 4ck, (R)-4-((8-Chloro-2,5-dioxo-3-(pyridin-2-ylmethyl)-2,3-dihydro-1H-benzo[e][1,4]diazepin-4(5H)-yl)methyl)-2-methyl-N-(5-methylpyridin-2-yl)benzamide] | 6.00 to 7.00 | 82% | 79% | > 7.00 | > 7.00
COc1cc(CN2C(=O)c3ccc(Cl)cc3NC(=O)[C@H]2Cc2ccccn2)ccc1C(=O)Nc1ccc(C)cn1 [Example 4cm, (R)-4-((8-Chloro-2,5-dioxo-3-(pyridin-2-ylmethyl)-2,3-dihydro-1H-benzo[e][1,4]diazepin-4(5H)-yl)methyl)-2-methoxy-N-(5-methylpyridin-2-yl)benzamide] | < 5.00 | 49% | 35% | > 7.00 | 6.00 to 7.00
Cc1cnc(NC(=O)c2ccc(CN3C(=O)c4ccc(Cl)cc4NC(=O)[C@H]3Cc3ccccn3)cc2Cl)cn1 [Example 5aa, (R)-2-Chloro-4-((8-chloro-2,5-dioxo-3-(pyridin-2-ylmethyl)-2,3-dihydro-1H-benzo[e][1,4]diazepin-4(5H)-yl)methyl)-N-(5-methylpyrazin-2-yl)benzamide] | 5.00 to 6.00 | 63% | 50% | > 7.00 | 6.00 to 7.00
COc1cnc(NC(=O)c2ccc(CN3C(=O)c4ccc(Cl)cc4NC(=O)[C@H]3Cc3ccccn3)cc2Cl)nc1 [Example 5ab, (R)-2-Chloro-4-((8-chloro-2,5-dioxo-3-(pyridin-2-ylmethyl)-2,3-dihydro-1H-benzo[e][1,4]diazepin-4(5H)-yl)methyl)-N-(5-methoxypyrimidin-2-yl)benzamide] | 5.00 to 6.00 | 100% | 100% | > 7.00 | > 7.00
COc1cnc(NC(=O)c2ccc(CN3C(=O)c4ccc(Cl)cc4NC(=O)[C@H]3Cc3ccccn3)cc2C)cn1 [Example 5af, (R)-4-((8-Chloro-2,5-dioxo-3-(pyridin-2-ylmethyl)-2,3-dihydro-1H-benzo[e][1,4]diazepin-4(5H)-yl)methyl)-N-(5-methoxypyrazin-2-yl)-2-methylbenzamide] | 5.00 to 6.00 | 100% | 100% | > 7.00 | 6.00 to 7.00
Cc1cnc(NC(=O)c2ccc(CN3C(=O)c4ccc(Cl)cc4NC(=O)[C@H]3Cc3ccccn3)cc2C)cn1 [Example 5ah, (R)-4-((8-Chloro-2,5-dioxo-3-(pyridin-2-ylmethyl)-2,3-dihydro-1H-benzo[e][1,4]diazepin-4(5H)-yl)methyl)-2-methyl-N-(5-methylpyrazin-2-yl)benzamide] | 5.00 to 6.00 | 91% | 65% | > 7.00 | 6.00 to 7.00
COc1cnc(NC(=O)c2ccc(CN3C(=O)c4ccc(Cl)cc4NC(=O)[C@H]3Cc3ccccn3)cc2C)nc1 [Example 5ai, (R)-4-((8-Chloro-2,5-dioxo-3-(pyridin-2-ylmethyl)-2,3-dihydro-1H-benzo[e][1,4]diazepin-4(5H)-yl)methyl)-N-(5-methoxypyrimidin-2-yl)-2-methylbenzamide] | 6.00 to 7.00 | 96% | 79% | > 7.00 | > 7.00
O=C(c1ccc(CN2C(=O)c3ccc(Cl)cc3NC(=O)[C@H]2Cc2ccccn2)cc1)c1cccn2ccnc12 [Example 34a, (R)-8-Chloro-4-(4-(imidazo[1,2-α]pyridine-8-carbonyl)benzyl)-3-(pyridin-2-ylmethyl)-3,4-dihydro-1H-benzo[e][1,4]diazepine-2,5-dione] | < 5.00 | – | – | > 7.00 | 6.00 to 7.00
